Test results reported in PMC4894406, “Results of an abbreviated phase-II study with the Akt Inhibitor MK-2206 in Patients with Advanced Biliary Cancer” (Scientific Reports, 2015).
Values joined by “and” are separate entries in the source; they are usually repeats but may differ in a detail not shown here. Equal values may be shown once. “Also recorded” adds a separate entry of the source. Read-outs that look alike come from different tables or passages of the source.

Experiments:
[1] = Phase II study: toxicities (NCI-CTCAE v4.0); assay type: in vivo, human; conditions: 200 mg weekly, n = 8
Procedure: The starting dose and schedule for MK-2206 was 200 mg given weekly in 28-day cycles without interruption. Treatment was administered on an outpatient basis. Two levels of dose reductions were planned (135 mg weekly and 90 mg weekly) with patients taken off the study for additional dose reductions.
Radiologic assessment was done by computed tomography every 8 weeks and responses were measured according to RECIST 1.1[17]. Toxicities were defined by the NCI-Common Terminology Criteria of Adverse Events version 4.0.

[2] = Plasma pharmacokinetics in biliary cancer patients (LC-MS/MS, non-compartmental); assay type: in vivo, human; conditions: for AUC(0-t): read-out: AUC0–96; for Vd/F: read-out: Vz/F; for k el: read-out: λz (converted)
Procedure: Plasma samples were collected from all patients at Week 1 of Cycle 1 immediately prior to dose administration, and at 30 min, 1, 2, 3, 4, 6, 8, 24, 48, and 96 hours after dose administration. The 24, 48 and 96-hour samples were collected on the mornings of days 2, 3 and 5 within 4 hours of the target time (e.g. 24 ± 4, 48 ± 4, and 96 ± 4 hours). Plasma samples were also collected immediately prior to the oral intake of MK-2206 tablet(s) on days 8, 15 and 29 (i.e. Cycle 2, Day 1) so that trough pre-dose levels of MK-2206 could be determined in the following studies. The plasma levels of MK-2206 were evaluated using quantitative liquid chromatography/tandem mass spectrometry (LC-MS/MS) at Merck & Co. Non-compartmental PK parameters were determined for MK-2206 using Phoenix WinNonlin (v6.3, Pharsight, Mountain View, CA).

CYP3A4 [3] = system: CYP3A4; set-up: method as in PMID 24387695; conditions: read-out: IC50 CYP3A4 inhibition; cited from earlier work
CYP2C9 = system: CYP2C9; set-up: method as in PMID 24387695; conditions: read-out: IC50 CYP2C9 inhibition; cited from earlier work
CYP3A = system: CYP3A; set-up: method as in PMID 24387695; conditions: at 0.1 to 10 μM; cited from earlier work
CYP3A4 [4] = conditions: cited from earlier work
[5] = OSU Trial, 7 subjects (subject 1004 excluded), BSA-adjusted
[6] = OSU Trial, 7 subjects (subject 1004 excluded), first dose 200 mg
[7] = human, plasma, po, 200 mg, subject 1001, first dose 200 mg oral
[8] = human, plasma, po, 200 mg, subject 1002, first dose 200 mg oral
[9] = human, plasma, po, 200 mg, subject 1003, first dose 200 mg oral
[10] = human, plasma, po, 200 mg, subject 1004, first dose 200 mg oral
[11] = human, plasma, po, 200 mg, subject 1005, first dose 200 mg oral
[12] = human, plasma, po, 200 mg, subject 1007, first dose 200 mg oral
[13] = human, plasma, po, 200 mg, subject 2006, first dose 200 mg oral
[14] = human, plasma, po, 200 mg, subject 2008, first dose 200 mg oral

NC1(c2ccc(-c3nc4ccn5c(=O)[nH]nc5c4cc3-c3ccccc3)cc2)CCC1 [MK-2206]
Anemia, All toxicities (%) [1]: 12.5% | Anemia, Grade 1 (%) [1]: 12.5% | Constipation, All toxicities (%) [1]: 12.5% | Constipation, Grade 1 (%) [1]: 12.5% | Diarrhea, All toxicities (%) [1]: 50% | Diarrhea, Grade 1 (%) [1]: 25% | Diarrhea, Grade 2 (%) [1]: 12.5% | Diarrhea, Grade 3 (%) [1]: 12.5% | Dry Mouth, All toxicities (%) [1]: 25% | Dry Mouth, Grade 1 (%) [1]: 25% | Dry Skin, All toxicities (%) [1]: 38% | Dry Skin, Grade 1 (%) [1]: 25% | Dry Skin, Grade 2 (%) [1]: 12.5% | Fatigue, All toxicities (%) [1]: 50% | Fatigue, Grade 1 (%) [1]: 25% | Fatigue, Grade 2 (%) [1]: 25% | Fever, Grade 1 (%) [1]: 25% | Hand Foot Syndrome, All toxicities (%) [1]: 38% | Hand Foot Syndrome, Grade 1 (%) [1]: 25% | Hand Foot Syndrome, Grade 2 (%) [1]: 12.5% | Hyponatremia, All toxicities (%) [1]: 12.5% | Hypophosphatemia, All toxicities (%) [1]: 25% | Hypophosphatemia, Grade 2 (%) [1]: 25% | Leukopenia, All toxicities (%) [1]: 12.5% | Leukopenia, Grade 1 (%) [1]: 12.5% | Lymphopenia, All toxicities (%) [1]: 75% | Lymphopenia, Grade 1 (%) [1]: 25% | Lymphopenia, Grade 2 (%) [1]: 12.5% | Lymphopenia, Grade 3 (%) [1]: 37.5% | Macular Rash, All toxicities (%) [1]: 63% | Macular Rash, Grade 1 (%) [1]: 12.5% | Macular Rash, Grade 2 (%) [1]: 12.5% | Macular Rash, Grade 3 (%) [1]: 38% | Mucositis, All toxicities (%) [1]: 38% | Mucositis, Grade 1 (%) [1]: 38% | Nausea, All toxicities (%) [1]: 38% | Nausea, Grade 1 (%) [1]: 38% | Thrombocytopenia, All toxicities (%) [1]: 25% | Thrombocytopenia, Grade 1 (%) [1]: 12.5% | Thrombocytopenia, Grade 3 (%) [1]: 12.5% | Vomiting, All toxicities (%) [1]: 50% | Vomiting, Grade 1 (%) [1]: 50% | overall toxicity / tolerability [1]: mild and tolerable; also recorded: mostly grade 1 or 2 and were reversible | Hyponatremia, Grade 4 (%) ([1]; felt to be unrelated to MK-2206): 12.5% | CL/F/m^2 (BSA-adjusted CL/F) [2, 5]: 16.5 +/− 7.2 L/hr/m^2 and 16.5±7.2 L/hr/m^2 | Vz/F/m^2 [2, 5]: 1521±931 L/m^2 | Cmax (average) [2, 6]: 114 ng/mL | Tmax (average) [2, 6]: 6.0 ± 1.6 h | concentration at 48 h ([2]; human, plasma, oral, 200 mg, 6 of 8 patients, read-out: 48-hr plasma concentration): > 22.7 ng/mL and > 56.8 nM | half-life ([2]; human, plasma, oral, 200 mg, OSU Trial, 7 subjects (subject 1004 excluded), first dose 200 mg, read-out: Half life (average) (converted)): 63.5 ± 21.2 h | concentration at 8 day ([2]; human, plasma, oral, 200 mg, day 8, 200 mg weekly, read-out: trough pre-dose average plasma concentration): 14.7 ng/mL | concentration at 15 day ([2]; human, plasma, oral, 200 mg, day 15, 200 mg weekly, read-out: trough pre-dose average plasma concentration): 14.4 ng/mL | concentration at 48 h ([2]; human, plasma, oral, 200 mg, one of the other two patients, read-out: Plasma concentration measured at 48 hours): 18.5 ng/mL | concentration at 48 h ([2]; human, plasma, oral, 200 mg, subject 1004, read-out: Plasma concentration measured at 48 hours): 5.06 ng/mL | Tmax ([2]; human, plasma, po, 200 mg, eight patients, first dose 200 mg oral, read-out: Tmax, range): 4 to 8 h | half-life ([2]; human, plasma, po, 200 mg, eight patients, first dose 200 mg oral, read-out: median terminal elimination half-life (converted)): 58 h | Tmax ([2]; human, plasma, po, 200 mg, eight patients, first dose 200 mg oral, read-out: median time to peak observed plasma concentrations (Tmax)): 6 h | half-life ([2]; human, plasma, po, 200 mg, eight patients, first dose 200 mg oral, read-out: terminal elimination half-life, range): 34 to 88 h | Cmax [2, 7]: 106 ng/mL | AUC(0-t) [2, 7]: 3320 ng·h/mL | half-life ([2]; human, plasma, po, 200 mg, subject 1001, first dose 200 mg oral, read-out: Half-life (converted)): 53.3 h | Tmax ([2]; human, plasma, po, 200 mg, subject 1001, first dose 200 mg oral, read-out: Tmax): 4 h | Vd/F [2, 7]: 3270 L | k el [2, 7]: 3.61e-06 s⁻¹ | Cmax [2, 8]: 111 ng/mL | AUC(0-t) [2, 8]: 6850 ng·h/mL | half-life ([2]; human, plasma, po, 200 mg, subject 1002, first dose 200 mg oral, read-out: Half-life (converted)): 80.4 h | Tmax ([2]; human, plasma, po, 200 mg, subject 1002, first dose 200 mg oral, read-out: Tmax): 6 h | Vd/F [2, 8]: 1870 L | k el [2, 8]: 2.5e-06 s⁻¹ | Cmax [2, 9]: 176 ng/mL | AUC(0-t) [2, 9]: 8450 ng·h/mL | half-life ([2]; human, plasma, po, 200 mg, subject 1003, first dose 200 mg oral, read-out: Half-life (converted)): 33.8 h | Tmax ([2]; human, plasma, po, 200 mg, subject 1003, first dose 200 mg oral, read-out: Tmax): 6 h | Vd/F [2, 9]: 989 L | k el [2, 9]: 5.83e-06 s⁻¹ | Cmax [2, 10]: 11.1 ng/mL | AUC(0-t) [2, 10]: 531 ng·h/mL | half-life ([2]; human, plasma, po, 200 mg, subject 1004, first dose 200 mg oral, read-out: Half-life (converted)): 62.5 h | Tmax ([2]; human, plasma, po, 200 mg, subject 1004, first dose 200 mg oral, read-out: Tmax): 8 h | Vd/F [2, 10]: 22200 L | k el [2, 10]: 3.06e-06 s⁻¹ | Cmax [2, 11]: 108 ng/mL | AUC(0-t) [2, 11]: 6020 ng·h/mL | half-life ([2]; human, plasma, po, 200 mg, subject 1005, first dose 200 mg oral, read-out: Half-life (converted)): 86.9 h | Tmax ([2]; human, plasma, po, 200 mg, subject 1005, first dose 200 mg oral, read-out: Tmax): 8 h | Vd/F [2, 11]: 2210 L | k el [2, 11]: 2.22e-06 s⁻¹ | Cmax [2, 12]: 90.1 ng/mL | AUC(0-t) [2, 12]: 3730 ng·h/mL | half-life ([2]; human, plasma, po, 200 mg, subject 1007, first dose 200 mg oral, read-out: Half-life (converted)): 50.2 h | Tmax ([2]; human, plasma, po, 200 mg, subject 1007, first dose 200 mg oral, read-out: Tmax): 6 h | Vd/F [2, 12]: 2880 L | k el [2, 12]: 3.89e-06 s⁻¹ | Cmax [2, 13]: 144 ng/mL | AUC(0-t) [2, 13]: 5850 ng·h/mL | half-life ([2]; human, plasma, po, 200 mg, subject 2006, first dose 200 mg oral, read-out: Half-life (converted)): 52.4 h | Tmax ([2]; human, plasma, po, 200 mg, subject 2006, first dose 200 mg oral, read-out: Tmax): 4 h | Vd/F [2, 13]: 1870 L | k el [2, 13]: 3.61e-06 s⁻¹ | Cmax [2, 14]: 44.7 ng/mL | AUC(0-t) [2, 14]: 2060 ng·h/mL | half-life ([2]; human, plasma, po, 200 mg, subject 2008, first dose 200 mg oral, read-out: Half-life (converted)): 87.5 h | Tmax ([2]; human, plasma, po, 200 mg, subject 2008, first dose 200 mg oral, read-out: Tmax): 8 h | Vd/F [2, 14]: 6560 L | k el [2, 14]: 2.22e-06 s⁻¹ | CL/F ([2]; subject 1001, first dose 200 mg oral): 42.5 L/h | CL/F ([2]; subject 1002, first dose 200 mg oral): 16.1 L/h | CL/F ([2]; subject 1003, first dose 200 mg oral): 20.3 L/h | CL/F ([2]; subject 1004, first dose 200 mg oral): 245 L/h | Cmax and AUC of subject 1004 compared to others ([2]; subject 1004 relative to the other seven subjects): 6% to 25 | CL/F ([2]; subject 1005, first dose 200 mg oral): 17.6 L/h | CL/F ([2]; subject 1007, first dose 200 mg oral): 39.8 L/h | CL/F ([2]; subject 2006, first dose 200 mg oral): 24.8 L/h | CL/F ([2]; subject 2008, first dose 200 mg oral): 52.0 L/h | accumulation with the current regimen ([2]; trough levels days 8 and 15, 200 mg weekly): no significant accumulation | IC50 (CYP3A4 [3]): […] | IC50 (CYP2C9): > 35 µM | effect on CYP3A mRNA and activity (CYP3A): insignificant effect | metabolism in human microsomes (CYP3A4 [4]): converted to oxidative metabolites in human microsomes via CYP3A4
